Experimental data published in patent US20240123022A1, “A STABLE ANTI-ANGIOGENIC AND ANTI-INFLAMMATORY PHARMACEUTICAL FORMULATION AND PHARMACEUTICAL COMBINATION FOR TREATMENT AND PREVENTION OF PSORIASIS” (priority 2021, published 2024).

Legend:
[1] = system: Human endothelial cells (EA.hy.926); experiment: Tube formation assay in EA.hy.926 cells; type: cell-based
Description: This assay was performed to determine ability of various compounds to promote or inhibit tube formation. Compounds that are able to inhibit tube formation could be useful in various diseases, such as cancer, where tumors stimulate new blood vessel formation to receive oxygen and nutrients in order to grow beyond a relatively small size.
Human endothelial cells (EA.hy.926) grown in DMEM and about 10% FBS were used as test system to determine angiogenic effect of IS217 by assessing inhibitory effects of test item on endothelial cells tube formation.
Prior to the tube formation assay, test item of concentration ranging 1 μg/ml, 10 μg/ml, 100 μg/ml, 500 μg/ml and 1000 μg/ml were used to treat endothelial cells for its cytotoxicity effect to assess suitable concentration for tube formation assay. The cells corresponding to positive control group were treated with paclitaxel. Anthralin was also used as positive control for in house validation.
After about 24 hours of incubation in CO2 incubator, 20 μl of 5 mg/ml of MTT was added to identify percentage cytotoxicty by biotek synergy HT plate reader. After that cells were processed for tube formation assay with selected concentrations of TI. The degree of angiogenesis progression was assessed based on visual pattern recognition of photomicrographs of EA.hy.926 cells.

EA.hy926 cells = experiment: Induction of DNA fragmentation in human endothelial cell line; type: cell-based
Description: EA.hy926 cells, a well reported in vitro model to study the anti-angiogenic potential used for assessing apoptotic effect of IS217 through induction of DNA fragmentation. Cell conditions were maintained using DMEM, about 10% FBS, CO2 incubator and serum starved using 1% FBS. The starved cells were treated with IS217 in the concentrations of 100 μg/ml, 500 μg/ml, 1000 μg/ml, 2000 μg/ml, 5000 μg/ml and incubated for about 48 hours. Anthralin in concentrations of 0.1 μM and 0.5 μM was used as positive control.
The fragmented DNA after lysis was precipitated using PEG/NaCl solution and incubated with 0.2 μg/ml of Hoechst 33258 dye, fluorescence was read at 360 ex/460 em using Biotek synergy HT multimode reader.

[2] = Pre-formulation stability and maximum feasible concentration; type: physicochemical
Description: This study is important in CMC preparation of any drug. The study was conducted to develop suitable pre-formulations of IS217 for four administration routes selected for in vivo studies and to determine maximum concentration of IS217 peptide which is feasible in these pre-formulation i.e., maximum feasible concentration (MFC). Four different aqueous based pre-formulations of IS217 like 10% v/v Tween 20, 20% v/v glycerol, 10% PG v/v in 0.9% NaCl solution and 0.9% NaCl alone were prepared and were first subjected to stability study at intended use of temperature (RT) for about 24 hours. HPLC based assay method was used to evaluate the stability.
Out of these, four aqueous based pre-formulation, 0.9% NaCl solution was selected for intravenous (IV) and intraperitoneal (IP) route and also the aqueous vehicle for co-solvent pre-formulation, based on its stability and suitability at physiological conditions. For subcutaneous (SC)/intramuscular route (IM), a co-solvent-based pre-formulation was developed. 10% propylene glycol (PG) in 0.9% NaCl solution was selected as pre-formulation for SC/IM. Maximum feasible concentration of IS217 in both the pre-formulations was greater than 50 mg/ml.

[3] = system: IMQ induced psoriasis mouse model; experiment: Proof of concept efficacy study, SC and topical route, IMQ-induced psoriasis mice model; type: in vivo, BALB/c mice
Description: The study objective was to validate the efficacy of IS 217 through Parental route and to study the efficacy of 1% IS 217 Cream Formulation through topically and to fix dose levels and treatment mode for further proof of concept studies and included with SC dose ([…] and 1.2 mg/kg) as proof of concept studies.
The study was conducted to evaluate efficacy of test compound IS217 (topical and subcutaneous route) on IMQ induced psoriasis mouse model.
Test items: IS217 cream formulation (topical treatment) and IS217 powder vials (subcutaneous treatment) along with placebo were provided.
Standard Drugs: 1.0.01% Batamethasone cream (Betnovate®); 100 mg/4 ml bevacuzimab (Avastin®)
Study animals: 8-9 weeks old male BALB/c mice were used for the study.
Treatment period was from day 1 to day 14. IMQ cream application: 5% IMQ cream, 65 mg was applied on shaved back and 5 mg on each ear during study period. Treatment regimen: treatment to be given twice a day-test drug high dose. 2-hour difference was taken between application of IMQ and application of test drug. 8-hour difference was taken between second application of test drug.
Required quantity of IS217 compounds was weighed on Sartorius weighing balance. Weighed amount was dissolved in 10% Propylene glycol.
• IMQ (Imigod, Glenmark pharmaceuticals) was weighed every day prior to application. • 65 mg of 5% IMQ cream was applied on shaved back of animals with help of spatula. 5 mg IMQ cream was applied on each ear of mouse. • IMQ application was done every day for 14 days and on day 15 studies were terminated. (Except for group 4 and group 5) • Group 4 was terminated on day 17 (post 14 days of treatment) • Group 5 was terminated on day 21 (post 14 days of treatment) • Group 4 and 5 received similar duration of test formulation as per group 3. • Group 4 received 17 days IMQ application, group 5 received 20 days IMQ application.
• Treatment to all the groups were done two hours post IMQ cream application • Formulation for topical application were weighted daily on Sartorius balance • Formulation for SC treatment was prepared fresh every day as per procedure mentioned above. • Standard drug Betamethasone was weighed daily and applied topically to respective treatment group • Bevacizumab was prepared fresh at the time of dosing. • All the treatments were given as per study design

[4] = human, microsomes
Description: Metabolic stability assay was performed to determine in vitro half-life and intrinsic clearance of test item. […] Following centrifugation, the supernatant was analyzed on HPLC-UV.

H-FAKKFAKKFK-OH [IS217, H-Phe-Ala-Lys-Lys-Phe-Ala-Lys-Lys-Phe-Lys-OH]
inhibition of endothelial morphogenesis on matrigel ([1]; Ea.hy.926, 500 μg/ml): Complete inhibition | endothelial tube formation ([1]; Ea.hy.926, all test concentrations 1 μg/ml to 1000 μg/ml): block endothelial tube formation | induction of DNA fragmentation (EA.hy926 cells; EA.hy926, 1000 μg/ml, 48 h): 24.53% | percentage of induction of DNA fragmentation (EA.hy926 cells; EA.hy926, 2000 μg/ml and 5000 μg/ml): significant decrease | Maximum feasible concentration ([2]; 0.9% NaCl solution (IV, IP pre-formulation)): greater than 50 mg/ml | Maximum feasible concentration ([2]; 10% propylene glycol in 0.9% NaCl solution (SC/IM pre-formulation)): greater than 50 mg/ml | physical appearance of pre-formulations ([2]; four aqueous pre-formulations, RT, 24 hours): no visual changes | only epidermal hyperplasia (skin) ([3]; 0.6 mg/kg SC): reduced | IL-17 level in ear, skin, and serum matrix ([3]; 0.6 mg/kg and 1.2 mg/kg SC): significant decrease | TNF-α in ear homogenates samples ([3]; 0.6 mg/kg and 1.2 mg/kg SC): decreased | ear thickness ([3]; 0.6 mg/kg and 1.2 mg/kg SC): significantly decreased | overall efficacy versus the standard drug (Bevacizumab) ([3]; 0.6 mg/kg and 1.2 mg/kg SC): comparable | psoriatic score, ear weight ([3]; 0.6 mg/kg and 1.2 mg/kg SC): significant decrease | scaling, erythema and skin thickness ([3]; 0.6 mg/kg and 1.2 mg/kg SC): decrease | Epidermal hyperplasia, parakeratosis, leukocyte infiltration ([3]; 0.6 mg/kg and 1.2 mg/kg, vs vehicle): significantly decreased | epidermal hyperplasia, parakeratosis in skin ([3]; 1.2 mg/kg SC): reduced | spleen weight ([3]; SC administration): Decrease | metabolic stability [4]: moderately metabolically stable | Shelf life of IS217 API: about 2 years | appearance of reconstituted solution (0.9% sodium chloride): clear and colourless | Dissolution of the lyophilized powder completed in (reconstitution with 0.9% sodium chloride): less than 2 minutes
